This is an account of results in US20190038703A1, “METHODS OF TREATING ACUTE MYELOID LEUKEMIA WITH A FLT3 MUTATION” (Biokine Therapeutics Ltd., priority 2013, published 2019).

Where a SMILES comes first, the peptide text is derived from it. Bridges are numbered along the chain shown (N, C = ends). [ ]: non-standard residue; d: D form. The star is where a group is joined. 2Nal = N[C@@H](Cc1ccc2ccccc2c1)C(=O)O; Benzoyl(4-F) = O=C(c1ccc(F)cc1)*; Cit = NC(=O)NCCC[C@H](N)C(=O)O

Data set [1] relates to MV4-11 cells engrafted in NOD SCID gamma (NSG) mice. Kind of data set: AML model of NSG mice engrafted with MV4-11 cells. The format is in vivo, mouse. To be noted: AC220 10 mg/Kg oral, daily for 7 days; for AML cells in the BM / percentage of alive AML blasts in the blood / level of AML cells in the spleen: BL-8040 400 ug/mouse SC; for AML cells in the BM: control 12.6%, FIGS. 11A-11B; for percentage of alive AML blasts in the blood: control 13.5%, FIG. 9; for level of AML cells in the spleen: control 21%, FIGS. 12A-12B. As to the method:
In the in-vivo study an AML model of NOD SCID gamma (NSG) mice engrafted with MV4-11 cells was used. […] The survival and apoptosis of AML cells were examined in the blood, BM and spleen of engrafted mice.
Female mice at the age of 7-9 weeks day (−1) 26/1/14: mice were irradiated with 200 rad 24 hr before cells injection day 0-27/1/14: mice were IV injected with 10×10^6 of MV4-11 cells in total volume of 200 ul PBS.

For data set [2], the system named is human primary AML cells with wild-type FLT3. Kind of data set: Survival assay (PI staining, FACS), human primary AML cells with FLT3-WT. The format is cell-based. To be noted: 48 hr; for decrease of the number of viable cells: human. The text has this: (§1) Human primary AML cells with FLT3-ITD mutation and with FLT3-WT were obtained from AML patients after getting their consent in accordance with regulations of Chaim Sheba Medical Center (Tel-Aviv, Israel). Peripheral blood mononuclear cells (PBMCs) were separated from blood samples by density-gradient centrifugation on Ficoll-Paque (Pharmacia Biotech, Uppsala, Sweden). The cells were suspended in […] (FCS; Biological Industries, Kibbutz Beit Haemek, Israel), supplement with 10% DMSO then stored in liquid nitrogen. Prior to commencing a toxicity assay the isolated cells were thawed, re-suspended in Roswell Park Memorial Institute medium (RPMI 1640; Gibco BRL life technologies) supplemented with 20% FCS and incubated for 4 hr at 37° C. Isolated cells with FLT3-ITD mutation or with FLT3 wild type (FLT3-WT) were identified by using a procedure essentially as described by Levis and Small (Leukemia 17: 1738-1752, 2003). […] Following incubation the cells were stained with propidium iodide (PI; Sigma, St. Louis, Mo.; 1:1000) and the incidence of dead cells (% PI-positive) and the density of viable cells (PI-negative) were determined by FACScalibur using the procedure described by Beider and Begin (Exp Hematol 39: 282-92, 2011).

In a further data set the test system is human AML xenografts. Particulars: subcutaneous injections; Beider et al., Exp. Hematol. 2011; cited from earlier work.
Data set [3] has as its system malignant cells of hematopoietic origin including AML. To be noted: cited from earlier work.
Data set [4] relates to human primary AML cells with FLT3-ITD. Kind of data set: Survival assay (PI staining, FACS), human primary AML cells with FLT3-ITD. Particulars: 48 hr; for decrease of the number of viable cells: human. The format is cell-based.
Excerpt: as §1

Data set [5] relates to human AML MV4-11 cells (FLT3-ITD). As to the kind of experiment: Example 2 in-vitro viability and apoptosis by FACS. To be noted: BL-8040 20 μM, 48 hrs. The format is cell-based. (In general: In flow cytometry, cells or beads pass a laser one at a time.)
Procedure: Methods: The human AML MV4-11 cells (FLT3-ITD) was used. Cells were in-vitro incubated for 48 hrs in the presence of BL-8040 (20 μM), AC220 (50 nM) or their combination. The level of viable cells, percentage of apoptosis was evaluated by FACS.

Turning to `CC(C)(C)c1cc(NC(=O)Nc2ccc(-c3cn4c(n3)sc3cc(OCCN5CCOCC5)ccc34)cc2)no1` [AC220, Quizartinib], in data set [1] (FIG. 10), the “reduction of total mouse WBC compared to the control” value stood at 65%. In addition, in data set [1], the “AML cells in the BM” value is given as 0.05%, the “percentage of alive AML blasts in the blood” value is recorded as 0.1% and the “level of AML cells in the spleen” value came to 0.09%.

As for `N=C(N)NCCC[C@H](NC(=O)[C@@H]1CSSC[C@H](NC(=O)[C@H](Cc2ccc3ccccc3c2)NC(=O)[C@H](CCCNC(=N)N)NC(=O)[C@H](CCCNC(=N)N)NC(=O)c2ccc(F)cc2)C(=O)N[C@@H](Cc2ccc(O)cc2)C(=O)N[C@@H](CCCNC(N)=O)C(=O)N[C@@H](CCCCN)C(=O)N[C@H](CCCCN)C(=O)N2CCC[C@H]2C(=O)N[C@@H](Cc2ccc(O)cc2)C(=O)N[C@@H](CCCNC(=N)N)C(=O)N[C@@H](CCCNC(N)=O)C(=O)N1)C(N)=O` [BL-8040, 4F-benzoyl-Arg-Arg-Nal-Cys-Tyr-Cit-Lys-DLys-Pro-Tyr-Arg-Cit-Cys-Arg-NH2] ({Benzoyl(4-F)}-RR[2Nal]CY[Cit]K[dK]PYR[Cit]CR-NH2; disulfide 4-13), the “increase of the percentage of dead cells” value is on record as 13.7% in data set [2] (BL-8040 8 μM, FIG. 2A); 56.3% in data set [2] (BL-8040 20 μM, FIG. 8A); 79.3% in data set [4] (BL-8040 8 μM, FIG. 1A); 116.6% in data set [4] (BL-8040 20 μM, FIG. 7A). The “decrease of the number of viable cells” value was determined as 16.1% in data set [2] (8 μM), 34.4% in data set [2] (20 μM), 28.8% in data set [4] (8 μM) and 50.0% in data set [4] (20 μM). In the data set with human AML xenografts, the “growth of human AML xenografts” value is “significantly reduced the growth”. Also, the “AML cells in the BM” value in data set [1] came to 2.6%. Further, the “percentage of alive AML blasts in the blood” value in data set [1] is 1.7%. Besides, the “level of AML cells in the spleen” value in data set [1] is 0.4%. In addition, the “cytotoxicity toward malignant cells of hematopoietic origin” value in data set [3] is reported as “CXCR4-dependent preferential cytotoxicity”. Further, the “inhibition of cell growth” value in data set [5] was found to be 35%. For the same molecule, the cell death in data set [5] (AC220 50 nM or their combination) is 40%.
